Laboratory results from patent publication US6207404A, “Coumarin-based CYP3A fluorescent assay reagents” (Gentest Corporation, priority 1999, dated 2001).
One block for each compound: values may come before it.

Key:
human CYP2B6 = details: Code et al. 1997; Morse and Lu 1998; cited from earlier work
other human P450s = details: Code et al. 1997; Morse and Lu 1998; cited from earlier work
[1] = system: panel of cDNA-expressed human P450 enzymes; details: Ono et al. (1996); cited from earlier work
CYP3A4 = details: in words; Crespi et al. 1997; cited from earlier work
human CYP3A4 [2] = molecular target: T1, human CYP3A4 (Homo sapiens, UniProt P08684); test: Enzyme kinetics of substrate turnover with cDNA-expressed CYP3A4 (fluorometric); assay type: biochemical
Description: The evaluation of compounds of Formula I were initially performed by measuring the kinetics of turnover using cDNA-expressed CYP3A4. In most instances, Vmax and Km values are important for the optimization of the assay conditions and for setting the parameters for inhibition experiments. Fluorometric assays for the turnover of compounds of Formula I by CYP3A4 were performed based on a modification of the method by Crespi et al. Anal Biochem. 248, 188-190, (1997), (described below).
Example Compound I. Assays were conducted in 96 well microtiter plates (Corning COSTAR, cat. no. 3915). The substrate, compound I, was prepared in acetonitrile. After cofactors addition, the plates were prewarmed to 37° C. Incubations were initiated by the addition of prewarmed buffer and enzyme. The enzymes were commercially available, baculovirus/insect cell expressed human CYP3A4 (SUPERSOMES®, GENTEST Corporation). The amount of enzyme added per well was 1 pmole. […] Fluorescence per well was measured using a BMG FLUOstar Model 403 plate scanner controlled with an IBM-compatible computer. The metabolite was measured using an excitation wavelength of 410 nm and emission wavelength of 538 nm. Data was exported and analyzed using an Excel spreadsheet. The activity was quantified by comparing to a standard curve of 7-hydroxy-4-trifluoromethyl coumarin.

[3] = system: panel of cDNA-expressed human P450 enzymes; test: Selectivity of dealkylation in a panel of cDNA-expressed human P450 enzymes; assay type: biochemical
Description: The selectivity of various P450 isoforms for dealkylation of compound I was examined using a panel of commercially available human cDNA-expressed enzymes. A substrate that is selective for a single P450 isoform (substrate is catalytically turned over by a single P450 isoform) is a desirable trait in that its activity may be examined within a heterogeneous mixture of enzymes, for example, in human liver microsomes. […] Compound I is therefore a more useful substrate for probing CYP3A activity in a heterogeneous mixture than the previous substrate BzRes. These advantages permit the specific detection of low levels of a preselected cytochrome P450 enzyme (e.g., 3A4) contained in various types of samples, e.g., tissue samples, microsomes, and so forth.
Example Compound I. Assays were conducted as described in (1) above except: incubation time was 20 min.; enzymes were commercially available, baculovirus/insect cell expressed human P450s (SUPERSOMES®, GENTEST Corporation); and the amount of enzyme added per well was 10 pmole with the exception of 2.5 pmole for CYP3A enzymes.

[4] = Solubility noted in enzyme kinetics table; assay type: physicochemical; details: at >200 uM
human CYP3A4 [5] = molecular target: T1, human CYP3A4
[6] = Quantum yield of the fluorescent product; assay type: physicochemical; details: relative to the product of BzRes
human CYP3A4 [7] = molecular target: T1, human CYP3A4; test: biochemical; details: 37° C., 20 minutes

T1 sequence (P08684 whole entry): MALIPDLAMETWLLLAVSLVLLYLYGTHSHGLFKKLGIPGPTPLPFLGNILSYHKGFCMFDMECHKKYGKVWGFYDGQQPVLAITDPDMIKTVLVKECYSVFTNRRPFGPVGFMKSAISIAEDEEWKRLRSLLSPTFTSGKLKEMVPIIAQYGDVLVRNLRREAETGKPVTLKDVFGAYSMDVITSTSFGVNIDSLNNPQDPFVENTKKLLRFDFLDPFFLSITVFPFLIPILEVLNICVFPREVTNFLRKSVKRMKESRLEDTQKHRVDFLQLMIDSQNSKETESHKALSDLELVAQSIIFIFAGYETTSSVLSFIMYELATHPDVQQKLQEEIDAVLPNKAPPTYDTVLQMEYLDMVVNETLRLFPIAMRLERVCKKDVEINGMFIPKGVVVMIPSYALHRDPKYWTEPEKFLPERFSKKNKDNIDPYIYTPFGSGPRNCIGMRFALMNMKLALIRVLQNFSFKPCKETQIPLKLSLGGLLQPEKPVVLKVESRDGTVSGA

Compound: CCOc1ccc2c(C(F)(F)F)cc(=O)oc2c1 [7-Ethoxy-4-trifluoromethylcoumarin]
O-dealkylation by human CYP2B6 (human CYP2B6): O-dealkylated
O-dealkylation by other human P450s (other human P450s): O-dealkylated

Compound: O=c1ccc2nc3ccc(OCc4ccccc4)cc3oc-2c1 [Benzyloxyresorufin, 7-benzyloxyresorufin]
metabolism by other human cytochromes P450 [1]: significantly metabolized by other human cytochromes P450
enzymatic turnover (CYP3A4): low enzymatic turnover
specificity (CYP3A4): poor specificity

Vmax (at 40 uM) (human CYP3A4 [2]; cDNA-expressed CYP3A4, at 40 uM substrate): 1.5 min⁻¹
Km at 0.75 h (human CYP3A4 [2]; human, cDNA-expressed CYP3A4, 1 pmole/well, 37° C., 45 minutes): > 200 µM
selectivity of dealkylation in panel of human P450 enzymes (FIG. 1) ([3]; 20 min, 10 pmole/well (2.5 pmole for CYP3A enzymes)): selective for CYP3A4
rank of CYP1A1 in dealkylation of the substrate ([3]; CYP1A1): second best enzyme
solubility (remark to Km >200 uM) [4]: exceeds solubility
IC50 values with compound I as the substrate compared with BzRes (human CYP3A4 [5]): tend to yield lower IC50 values
Compound: O=c1cc(C(F)(F)F)c2ccc(OCc3ccccc3)cc2o1 [Compound I, 7-Benzyloxy-4-trifluoromethylcoumarin]

quantum yield of product relative to the product of benzyloxyresorufin [6]: greater quantum yield
Compound: O=c1cc(C(F)(F)F)c2ccc(O)cc2o1 [Compound II, 7-hydroxy-4-trifluoromethylcoumarin]

Compound: CC[C@H]1OC(=O)[C@H](C)[C@@H](O[C@H]2C[C@@](C)(OC)[C@@H](O)[C@H](C)O2)[C@H](C)[C@@H](O[C@@H]2O[C@H](C)C[C@H](N(C)C)[C@H]2O)[C@](C)(O)C[C@@H](C)C(=O)[C@H](C)[C@@H](O)[C@]1(C)O [Erythromycin]
IC50 (human CYP3A4 [7]; CYP3A4 IC50, substrate BzRes, substrate BzRes): 1700 nM
IC50 (human CYP3A4 [7]; CYP3A4 IC50, substrate I, substrate compound I (100 uM)): 4070 nM
